Earlier results on 1 molecule are cited in patent US5849733A, “2-thio or 2-oxo flavopiridol analogs” (Bristol-Myers Squibb Co., priority 1997, dated 1998).

The data set concerns apoptosis. The note with it: J. Cell Sci., 108, 2897 (1995).

Turning to `Cn1cnc2c(NCc3ccccc3)nc(NCCO)nc21` [olomucine], the “synergy with known cytotoxic agents in inducing apoptosis” value is recorded as “act synergistically with known cytotoxic agents in inducing apoptosis”.
